{
  "source": "patent US20140342380A1",
  "about": "“VERIFYING THE SOURCE OF BIOLOGICAL SAMPLES; METHOD, COMPOSITION AND KIT THEREFOR” (priority 2011, published 2014)",
  "origin": "cited, not measured here",
  "key": {"[1]": {"conditions": "cited from earlier work"}, "[2]": {"conditions": "cited from earlier work", "remark": "listed apart in the source"}},
  "note": "Read-outs that look alike come from different tables or passages of the source.",
  "data": [
    {"molecule": "O=C(OC[C@H]1O[C@@H](OC(=O)c2cc(O)c(O)c(OC(=O)c3cc(O)c(O)c(O)c3)c2)[C@H](OC(=O)c2cc(O)c(O)c(OC(=O)c3cc(O)c(O)c(O)c3)c2)[C@@H](OC(=O)c2cc(O)c(O)c(OC(=O)c3cc(O)c(O)c(O)c3)c2)[C@@H]1OC(=O)c1cc(O)c(O)c(OC(=O)c2cc(O)c(O)c(O)c2)c1)c1cc(O)c(O)c(OC(=O)c2cc(O)c(O)c(O)c2)c1", "note": "[Tannic acid]", "values": [
      {"measurement": "metabolite(s) found after ingestion", "setting": "[1]; Table 1 note, cited study in rat", "value": "Tannic acid: metabolized to 4-0-Methylgallic acid (4-OMGA), pyrogallol (PY), and resorcinol"}
    ]},
    {"molecule": "CCCCCCCCCCCCOC(=O)CCSCCC(=O)OCCCCCCCCCCCC", "note": "[Dilauryl thiodipropionate (DLTDP), Dilauryl thiodipropionate]", "values": [
      {"measurement": "metabolite(s) / form excreted in urine after ingestion", "setting": "[2]; Table 1 note, species not stated", "value": "Dilauryl thiodipropionate (DLTDP), Ingested DLTDP was excreted in the urine as thiodipropionic"}
    ]},
    {"molecule": "inulin", "values": [
      {"measurement": "renal handling / detection in urine after consumption", "setting": "[2]; general statement", "value": "readily passively filtered by the kidney, e.g., detected in the urine after consumption"}
    ]},
    {"molecule": "C=CCc1ccc(O)c(OC)c1", "note": "[eugenol]", "values": [
      {"measurement": "metabolite(s) found after ingestion", "setting": "[1]; rat, in vivo", "value": "eugenol clove leaf oil metabolized to Glucuronide and sulfate conjugates were identified in urine."}
    ]}
  ]
}
